Measured values from US9278958B2, “Anti-cancer compounds” (KATHOLIEKE UNIVERSITEIT LEUVEN, priority 2012, dated 2016).
Where two headings read alike, the source gives them in different places.

Assays:
[1] = tested on: 293T embryonic kidney cells; assay: Cytostatic assay, 293T; assay type: cell-based; settings: Homo sapiens, HEK-293T; Table 3
Method in brief: (§1)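 Test compound was added to wells holding 5-7.5×10^4 cells. After line-specific growth periods of 48 h to 96 h at 37° C in a moist atmosphere with regulated CO2, the number of cells was recorded by Coulter counting.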

[2] = tested on: MCF-7 mammary carcinoma cells; assay: Cytostatic assay, MCF-7; assay type: cell-based; settings: Homo sapiens, MCF7; Table 3
Method in brief: as §1

[3] = tested on: DNA synthesis in Raji cells; assay: Antimetabolic activity assay, [CH3-3H]dThd incorporation (DNA synthesis), Raji; assay type: cell-based; settings: Homo sapiens, incorporation into TCA-insoluble material
Protocol: [The procedure below names another cell line; the source lists this cell line under the same test.] (§2) Radiolabeled precursors of DNA synthesis ([^3H-methyl]dThd), RNA synthesis ([5-^3H]Urd), and protein synthesis ([4,5-^3H]leu) were added to 10^5 CEM cell cultures in the 200 μl-wells of a microtiter plate at 1 μCi for each precursor in the presence of varying concentrations of the test compounds (5-fold dilution series). The cells were allowed to proliferate for 20 hrs at 37° C. in a humidified, CO2-controlled atmosphere. At the end of the incubation period, the contents of the wells were brought onto 25-mm glass fiber filters and further processed for measurement of acid-insoluble radioactivity.

[4] = tested on: RNA synthesis in CEM cells; assay: Antimetabolic activity assay, [5-3H]uridine incorporation (RNA synthesis), CEM; assay type: cell-based; settings: Homo sapiens, CCRF-CEM, incorporation into TCA-insoluble material
Protocol: as §2

Molt4/C8 cells = assay: Cytostatic assay, Molt4/C8; assay type: cell-based; settings: Table 2
Method in brief: as §1

[5] = tested on: protein synthesis in Raji cells; assay: Antimetabolic activity assay, [4,5-3H]leucine incorporation (protein synthesis), Raji; assay type: cell-based; settings: Homo sapiens, incorporation into TCA-insoluble material
Protocol: [The procedure below names another cell line; the source lists this cell line under the same test.] as §2

[6] = tested on: HT29 colorectal carcinoma cells; assay: Cytostatic assay, HT29; assay type: cell-based; settings: Homo sapiens, HT-29; Table 3
Method in brief: as §1

L1210 cells = assay: Cytostatic assay, L1210; assay type: cell-based; settings: Mus musculus, Table 2
Method in brief: as §1

HepG2C3A hepatoma cells = assay: Cytostatic assay, HepG2C3A; assay type: cell-based; settings: Homo sapiens, HepG2/C3A; Table 4
Method in brief: as §1

[7] = tested on: U937, human monocytic cells; assay: Cytostatic assay, U937; assay type: cell-based; settings: U-937, Table 2
Method in brief: as §1

MT-2 cells = assay: Cytostatic assay, MT-2; assay type: cell-based; settings: Homo sapiens, MT2; Table 2
Method in brief: as §1

CEM cells = assay: Cytostatic assay, CEM; assay type: cell-based; settings: Homo sapiens, CCRF-CEM
Method in brief: as §1

[8] = tested on: FM3A mammary carcinoma cells; assay: Cytostatic assay, FM3A; assay type: cell-based, murine; settings: Mus musculus, Table 3
Method in brief: as §1

[9] = tested on: 22Rv1 (UZ) prostate cancer cells; assay: Cytostatic assay, 22Rv1 (UZ); assay type: cell-based; settings: Homo sapiens, Table 4
Method in brief: as §1

BPH-1 (UZ) = assay: Cytostatic assay, BPH-1 (UZ); assay type: cell-based; settings: Homo sapiens, Table 4
Method in brief: as §1

[10] = tested on: protein synthesis in CEM cells; assay: Antimetabolic activity assay, [4,5-3H]leucine incorporation (protein synthesis), CEM; assay type: cell-based; settings: Homo sapiens, CCRF-CEM, incorporation into TCA-insoluble material
Protocol: as §2

[11] = tested on: Raji, human B-lymphoma cells; assay: Cytostatic assay, Raji; assay type: cell-based; settings: Table 2
Method in brief: as §1

[12] = tested on: RNA synthesis in Raji cells; assay: Antimetabolic activity assay, [5-3H]uridine incorporation (RNA synthesis), Raji; assay type: cell-based; settings: Homo sapiens, incorporation into TCA-insoluble material
Protocol: [The procedure below names another cell line; the source lists this cell line under the same test.] as §2

[13] = tested on: BAEC aortic endothelial cells; assay: Cytostatic assay, BAEC; assay type: cell-based, bovine; settings: Bos taurus, Table 3
Method in brief: as §1

[14] = tested on: Caki-1 kidney carcinoma cells; assay: Cytostatic assay, Caki-1; assay type: cell-based; settings: Homo sapiens, Table 3
Method in brief: as §1

Huh-7 hepatoma cells = assay: Cytostatic assay, Huh-7; assay type: cell-based; settings: Homo sapiens, Table 4
Method in brief: as §1

Sup T1 cells = assay: Cytostatic assay, Sup T1; assay type: cell-based; settings: Homo sapiens, Table 2, read-out: Cytostatic activity (μM) Sup T 1
Method in brief: as §1

[15] = tested on: PC3 (rega) prostate cancer cells; assay: Cytostatic assay, PC3 (rega); assay type: cell-based; settings: Table 4
Method in brief: as §1

[16] = tested on: HeLa cervix carcinoma cells; assay: Cytostatic assay, HeLa; assay type: cell-based, human; settings: Homo sapiens; Table 3; read-out: Cytostatic activity (μM) Hela
Method in brief: as §1

C8166 cells = assay: Cytostatic assay, C8166; assay type: cell-based; settings: Homo sapiens, Table 2
Method in brief: as §1

[17] = tested on: DNA synthesis in CEM cells; assay: Antimetabolic activity assay, [CH3-3H]dThd incorporation (DNA synthesis), CEM; assay type: cell-based; settings: Homo sapiens, CCRF-CEM, incorporation into TCA-insoluble material
Protocol: as §2

[18] = tested on: PNT1A (UZ) prostate cells; assay: Cytostatic assay, PNT1A (UZ); assay type: cell-based; settings: Homo sapiens, Table 4
Method in brief: as §1

[19] = tested on: Caki-2 kidney carcinoma cells; assay: Cytostatic assay, Caki-2; assay type: cell-based; settings: Homo sapiens, Table 3
Method in brief: as §1

MT-4 cells = assay: Cytostatic assay, MT-4; assay type: cell-based; settings: Homo sapiens, MT4; Table 2
Method in brief: as §1

[20] = tested on: HL60, human leukemia cells; assay: Cytostatic assay, HL-60; assay type: cell-based; settings: Table 2
Method in brief: as §1

PLC/PRF/5 hepatoma cells = assay: Cytostatic assay, PLC/PRF/5; assay type: cell-based; settings: Homo sapiens, Table 4
Method in brief: as §1

[21] = tested on: LNCaP (UZ) prostate cancer cells; assay: Cytostatic assay, LNCaP (UZ); assay type: cell-based; settings: Homo sapiens, Table 4
Method in brief: as §1

HUT-78 cells = assay: Cytostatic assay, HUT-78; assay type: cell-based; settings: Homo sapiens, HuT78; Table 2
Method in brief: as §1

[22] = tested on: PC-3 (UZ) prostate cancer cells; assay: Cytostatic assay, PC-3 (UZ); assay type: cell-based; settings: Table 4
Method in brief: as §1

U87 glioma cells = assay: Cytostatic assay, U87; assay type: cell-based; settings: Homo sapiens, U-87 MG; Table 3
Method in brief: as §1

[23] = tested on: THP-1, human monocytic cells; assay: Cytostatic assay, THP-1; assay type: cell-based; settings: Table 2
Method in brief: as §1

[24] = tested on: broad variety of tumor cell lines; assay: Cytostatic assays, summary over the panel of cell lines (Tables 2-4); assay type: cell-based
Protocol: (§3) To each well of a 96-well microtiter plate were added 5-7.5×10^4 cells and a given amount of the test compound. The cells were allowed to proliferate for 48 h to 96 h (depending on the nature of the cell line) at 37° C. in a humidified CO2-controlled atmosphere. At the end of the incubation period, the cells were counted in a Coulter Counter (Coulter Electronics Ltd, Harpenden Herts, United Kingdom).

[25] = tested on: HEL embryonic lung fibroblast cells; assay: Cytostatic assay, HEL; assay type: cell-based; settings: Homo sapiens, Table 3
Method in brief: as §1

[26] = tested on: DU145 (UZ) prostate cancer cells; assay: Cytostatic assay, DU145 (UZ); assay type: cell-based; settings: Homo sapiens, DU-145; Table 4
Method in brief: as §1

[27] = tested on: HOS CD4+ osteosarcoma cells; assay: Cytostatic assay, HOS CD4+; assay type: cell-based; settings: Homo sapiens; Table 3
Protocol: as §3

[28] = tested on: OST TK- osteosarcoma cells; assay: Cytostatic assay, OST TK-; assay type: cell-based; settings: Homo sapiens; Table 3
Method in brief: as §1

[29] = tested on: Daudi, human B-lymphoma cells; assay: Cytostatic assay, Daudi; assay type: cell-based; settings: Table 2
Protocol: as §3

[30] = tested on: U87 CD4+/CXCR4+/CCR5+ glioma cells; assay: Cytostatic assay, U87 CD4+/CXCR4+/CCR5+; assay type: cell-based; settings: Homo sapiens, Glioma cell; Table 3
Protocol: as §3

[31] = Table 1a, read-out: IC50 μM (CEM)
[32] = Table 2, read-out: Cytostatic activity (μM) CEM

COc1ccc(OC)c(CCc2cc(C#N)c(N)s2)c1 [TR589, 2-Amino-5-[2-(2,5-dimethoxy-phenyl)-ethyl]-thiophene-3-carbonitrile]
IC50 [1]: < 0.032 µM
IC50 [2]: 0.026 ± 0.0014 µM
IC50 [3]: ≥ 100 µM
IC50 [4]: 44 ± 11 µM
IC50 (Molt4/C8 cells): 0.058 ± 0.056 µM
IC50 [5]: 39 ± 36 µM
IC50 [6]: 0.046 ± 0.012 µM
IC50 (L1210 cells): 0.064 ± 0.025 µM
IC50 (HepG2C3A hepatoma cells): 0.29 ± 0.18 µM
IC50 [7]: 0.036 ± 0.001 µM
IC50 (MT-2 cells): 0.027 ± 0.001 µM
IC50 (CEM cells; [31]): 0.015 µM
IC50 (CEM cells; [32]): 0.015 µM
IC50 [8]: 0.05 ± 0.046 µM
IC50 [9]: < 0.032 µM
IC50 (BPH-1 (UZ)): < 0.032 µM
IC50 [10]: 20 µM
IC50 [11]: 0.063 ± 0.013 µM
IC50 [12]: 90 ± 14 µM
IC50 [13]: < 0.032 µM
IC50 [14]: 0.016 ± 0.001 µM
IC50 (Huh-7 hepatoma cells): < 0.16 µM
IC50 (Sup T1 cells): 0.017 ± 0.012 µM
IC50 [15]: < 0.032 µM
IC50 [16]: 0.13 ± 0.06 µM
IC50 (C8166 cells): 0.021 ± 0.009 µM
IC50 [17]: > 100 µM
IC50 [18]: < 0.032 µM
IC50 [19]: 0.042 ± 0.004 µM
IC50 (MT-4 cells): 0.086 ± 0.048 µM
IC50 [20]: 0.024 ± 0.004 µM
IC50 (PLC/PRF/5 hepatoma cells): 0.041 ± 0.013 µM
IC50 [21]: < 0.032 µM
IC50 (HUT-78 cells): 0.062 ± 0.039 µM
IC50 [22]: < 0.032 µM
IC50 (U87 glioma cells): 0.038 ± 0.008 µM
IC50 [23]: 0.022 ± 0.003 µM
fold more cytostatic than the corresponding -COOEt-containing compound 16b [24]: 50 fold
IC50 ([24]; range over the cell lines of Tables 2-4, read-out: IC50 range (antiproliferative activity)): 20 to 130 nM
IC50 [25]: < 0.032 µM
IC50 [26]: 0.061 ± 0.016 µM

COC(=O)c1cc(CCc2ccc(OC)cc2C)sc1N [TR583, 2-Amino-5-[2-(4-methoxy-2-methyl-phenyl)-ethyl]-thiophene-3-carboxylic acid methyl ester]
IC50 [27]: 67 ± 6.4 µM
IC50 [1]: 84 ± 23 µM
IC50 [2]: 79 ± 30 µM
IC50 [3]: > 100 µM
IC50 [28]: 10 ± 6.9 µM
IC50 [29]: 61 ± 1.4 µM
IC50 [4]: 1 ± 0.5 µM
IC50 (Molt4/C8 cells): 0.27 ± 0.27 µM
IC50 [5]: > 100 µM
IC50 [6]: > 100 µM
IC50 (L1210 cells): 248 ± 40 µM
IC50 (HepG2C3A hepatoma cells): 13 ± 0.71 µM
IC50 [7]: 40 ± 2.8 µM
IC50 (MT-2 cells): 1.8 ± 0.64 µM
IC50 (CEM cells; [31]): 1.5 µM
IC50 (CEM cells; [32]): 1.5 ± 0.28 µM
IC50 [8]: 49 ± 9.9 µM
IC50 [9]: 21 ± 17 µM
IC50 (BPH-1 (UZ)): > 100 µM
IC50 [10]: 1.9 ± 1.6 µM
IC50 [11]: 93 ± 11 µM
IC50 [12]: > 100 µM
IC50 [13]: 44 ± 22 µM
IC50 [14]: 4.5 ± 3.8 µM
IC50 (Huh-7 hepatoma cells): 4.6 ± 0.28 µM
IC50 (Sup T1 cells): 0.95 ± 0.64 µM
IC50 [15]: 0.57 ± 0.3 µM
IC50 [30]: 48 ± 6.4 µM
IC50 [16]: 105 ± 68 µM
IC50 (C8166 cells): 1.6 ± 0.95 µM
IC50 [17]: 3.1 ± 0.3 µM
IC50 [18]: > 100 µM
IC50 [19]: ≥ 200 µM
IC50 (MT-4 cells): 60 ± 0.71 µM
IC50 [20]: 4.9 ± 5.4 µM
IC50 (PLC/PRF/5 hepatoma cells): 62 ± 21 µM
IC50 [21]: 0.35 ± 0.067 µM
IC50 (HUT-78 cells): 39 ± 27 µM
IC50 [22]: 1.3 ± 0.071 µM
IC50 (U87 glioma cells): > 100 µM
IC50 [23]: 32 ± 4.9 µM
IC50 ([24]; Homo sapiens, HuT78, range for the seven compounds, MT-4 and HUT-78 cells, read-out: IC50 range, cytostatic activity against MT-4 and HUT-78 cells): 8500 to 60000 nM
IC50 ([24]; range for the seven compounds against the 5 tumor cell lines, read-out: IC50 range, cytostatic activity against CEM, Molt4/C8, Sup T1, MT-2 and C8166 cells): 220 to 3400 nM
IC50 [25]: 87 ± 19 µM
IC50 [26]: 14 ± 1.2 µM
